The results in this text go back to patent publication US7825263B2, “Nitrooxyderivatives of carvedilol and other beta blockers as antihypertensive” (Nicox S.A., priority 2003, dated 2010).

What is called EC50 is the concentration that produces a half-maximal response.

This assay has as its system PC12 cells. Briefly: Measurements of cGMP in rat PC12 cell line (cGMP accumulation, enzyme immunoassay). In kind it is cell-based. The settings on record: for EC50: PC-12, 0.75 h. Here is the method:
Measurements of cGMP in Rat PC12 Cell Line
cGMP contributes to the function and interaction of several vascular cell types and its dysfunction is involved in major cardiovascular diseases such as hypertension, diabetic complications, atherosclerosis, and tissue infarction. Therefore the extent of cGMP formation elicited by the compounds of the inventions was evaluated in the rat pheochromocytoma (PC12) cell line.
Cells were maintained at 37° C. in DMEM medium enriched with 10% horse serum and 5% foetal bovine serum under 5% CO2 atmosphere. At the time of experiments the cells were washed once with Hank's Balanced Salt Solution (HBSS) supplemented with 0.05% ascorbic acid and preincubated in the same buffer for 10 min in a floating water bath. After the preincubation step, cells were exposed for additional 45 min to either control conditions or increasing concentrations of test compounds ranging from 0.1 to 25 μM, in the presence of the phosphodiesterase inhibitor, IBMX (100 μM) and the NO-independent activator of soluble guanylyl cyclase, YC-1 (20 μM). The reaction was terminated by the removal of the incubating buffer and consecutive addition of 100 μl of absolute ethanol. The organic extracts were then evaporated to dryness and the residues dissolved in aqueous buffer for quantitative determination of intracellular cGMP levels using the cGMP enzyme immunoassay kit.
The obtained results reported in Table 1 are expressed as EC50 (μM) and efficacy Emax (% of vehicle). As shown in the table the nitroderivatives of carvedilol induced a consistent increase of intracellular cGMP formation in PC12 cell line. Conversely, this effect was not induced by the parent compound.

[1] abbreviates: 45 min exposure, 0.1 to 25 μM test compound, in presence of IBMX (100 μM) and YC-1 (20 μM).

In the case of `COc1ccccc1OCCN(CC(O)COc1cccc2[nH]c3ccccc3c12)C(=O)CCCCCO[N+](=O)[O-]` (centres unmarked) [Compound of example 5], under setting [1], the “Emax (% of vehicle), cGMP accumulation in PC12 cells” value (shortened to “Emax (% of vehicle)”) is on record as 322 % of vehicle and the EC50 was determined as 0.6 µM.
The like results for `COc1ccccc1OCCN(CC(O)COc1cccc2[nH]c3ccccc3c12)C(=O)c1ccc(CO[N+](=O)[O-])cc1` (centres unmarked) [Compound of example 3, 1-(9H-carbazol-4-yloxy)-3-[[2-(2-methoxyphenoxy)ethyl][(4-nitrooxymethyl)benzoyl]amino]-2-propanol] were, in that order, 565 % of vehicle and 1.8 µM.
With `COc1ccccc1OCCNCC(O)COc1cccc2[nH]c3ccccc3c12` (centres unmarked) [Carvedilol], under setting [1], the “EC50, cGMP accumulation in PC12 cells” value is recorded as “Not effective” and the “Emax (% of vehicle)” value is on record as “Not effective”. The “increase of intracellular cGMP formation in PC12 cell line (in words)” value (summary statement on Table 1) is reported as “not induced”.
Turning to `COc1ccccc1OCCN(CC(O)COc1cccc2[nH]c3ccccc3c12)C(=O)CCO[N+](=O)[O-]` (centres unmarked) [Compound of example 4], under setting [1], the “Emax (% of vehicle)” value was 395 % of vehicle and the EC50 turned out to be 1.7 µM.
For the molecule `COc1ccccc1OCCNCC(COc1cccc2[nH]c3ccccc3c12)OC(=O)c1ccc(CO[N+](=O)[O-])cc1` (centres unmarked) [Compound of example 1, 4-(Nitrooxymethyl)benzoic acid 1-(9H-carbazol-4-yloxy)-3-[[2-(2-methoxyphenoxy)ethyl]amino]-2-propanoate], under setting [1], the “Emax (% of vehicle)” value was 480 % of vehicle and the half-maximal effective concentration (EC50) was 2.3 µM.
